Results taken from PMC5218480 (PLoS ONE, 2017).

Tested on: MV-4-11 cells
Assay: Gene expression microarray analysis (Affymetrix PrimeView) and GSEA
Format: cell-based, human
Set-up: RFU PODN (11730768_x_at) / Fold change /veh PODN (11730768_x_at) / RFU LINC00158 (11744669_a_at) / Fold change /veh LINC00158 (11744669_a_at) / RFU DUSP10 (11751237_a_at) / Fold change /veh DUSP10 (11751237_a_at) / RFU ID3 (11757404_x_at) / Fold change /veh ID3 (11757404_x_at) / RFU PLEKHG5 (11737974_s_at) / Fold change /veh PLEKHG5 (11737974_s_at) / RFU LRRC4B (11730491_at) / Fold change /veh LRRC4B (11730491_at) / RFU GIMAP4 (11747438_a_at) / Fold change /veh GIMAP4 (11747438_a_at) / RFU KRT8 (11758183_x_at) / Fold change /veh KRT8 (11758183_x_at) / RFU CNN1 (11734310_a_at) / Fold change /veh CNN1 (11734310_a_at) / RFU VPS37D (11726825_at) / Fold change /veh VPS37D (11726825_at) / RFU C10orf10 (11716522_x_at) / Fold change /veh C10orf10 (11716522_x_at) / RFU KIR2DL2 /// KIR2DL4 /// KIR2DL5A /// KIR2DL5B /// KIR2DS1 /// KIR2DS2 /// KIR2DS3 /// KIR2DS4 /// KIR3DL3 /// KIR3DL3 /// KIR3DS1 (11738374_at) / Fold change /veh KIR2DL2 /// KIR2DL4 /// KIR2DL5A /// KIR2DL5B /// KIR2DS1 /// KIR2DS2 /// KIR2DS3 /// KIR2DS4 /// KIR3DL3 /// KIR3DL3 /// KIR3DS1 (11738374_at) / RFU C1QL1 (11718748_at) / Fold change /veh C1QL1 (11718748_at) / RFU TMPRSS4 (11747572_a_at) / Fold change /veh TMPRSS4 (11747572_a_at) / RFU HAMP (11756126_x_at) / Fold change /veh HAMP (11756126_x_at) / RFU RNFT2 (11725882_a_at) / Fold change /veh RNFT2 (11725882_a_at) / RFU NR4A2 (11747474_a_at) / Fold change /veh NR4A2 (11747474_a_at) / RFU ABCC12 (11746883_a_at) / Fold change /veh ABCC12 (11746883_a_at) / RFU TMEM136 (11760407_x_at) / Fold change /veh TMEM136 (11760407_x_at) / RFU CLDN22 /// WWC2 (11732394_at) / Fold change /veh CLDN22 /// WWC2 (11732394_at) / RFU HLA-DPB1 (11760878_x_at) / Fold change /veh HLA-DPB1 (11760878_x_at) / RFU SPINT1 (11716480_a_at) / Fold change /veh SPINT1 (11716480_a_at) / RFU GAP43 (11754022_s_at) / Fold change /veh GAP43 (11754022_s_at) / RFU A4GNT (11735810_at) / Fold change /veh A4GNT (11735810_at) / RFU PRB3 (11715151_x_at) / Fold change /veh PRB3 (11715151_x_at) / RFU TUBB4B (11761932_at) / Fold change /veh TUBB4B (11761932_at) / RFU CAPN14 (11732068_a_at) / Fold change /veh CAPN14 (11732068_a_at) / RFU TMCC2 (11721928_a_at) / Fold change /veh TMCC2 (11721928_a_at) / RFU IRGQ (11745062_a_at) / Fold change /veh IRGQ (11745062_a_at) / RFU FAM174B (11720279_a_at) / Fold change /veh FAM174B (11720279_a_at) / RFU TMPRSS4 (11748680_a_at) / Fold change /veh TMPRSS4 (11748680_a_at) / RFU FAM212B (11763350_a_at) / Fold change /veh FAM212B (11763350_a_at) / RFU PLEKHG5 (11743358_a_at) / Fold change /veh PLEKHG5 (11743358_a_at) / RFU ZSCAN30 (11745921_a_at) / Fold change /veh ZSCAN30 (11745921_a_at) / RFU CMKLR1 (11741424_a_at) / Fold change /veh CMKLR1 (11741424_a_at) / RFU LOC101060620 /// MAPK8IP1 (11723275_at) / Fold change /veh LOC101060620 /// MAPK8IP1 (11723275_at) / RFU SPTSSB (11747773_x_at) / Fold change /veh SPTSSB (11747773_x_at) / RFU PRSS12 (11739890_at) / Fold change /veh PRSS12 (11739890_at) / RFU BIN1 (11741810_x_at) / Fold change /veh BIN1 (11741810_x_at) / RFU WNT11 (11732464_a_at) / Fold change /veh WNT11 (11732464_a_at) / RFU C10orf10 (11716521_a_at) / Fold change /veh C10orf10 (11716521_a_at) / RFU C5orf56 (11738089_at) / Fold change /veh C5orf56 (11738089_at) / RFU CYB561 (11721691_x_at) / Fold change /veh CYB561 (11721691_x_at) / RFU ANKRD19P (11752326_a_at) / Fold change /veh ANKRD19P (11752326_a_at) / RFU OR2T12 /// OR2T33 /// OR2T8 (11738714_s_at) / Fold change /veh OR2T12 /// OR2T33 /// OR2T8 (11738714_s_at) / RFU VCAN (11748164_a_at) / Fold change /veh VCAN (11748164_a_at) / RFU JSRP1 (11732532_at) / Fold change /veh JSRP1 (11732532_at) / RFU KRTAP10-11 (11738290_x_at) / Fold change /veh KRTAP10-11 (11738290_x_at) / RFU MYO3A (11730013_a_at) / Fold change /veh MYO3A (11730013_a_at) / RFU EBF3 (11725865_a_at) / Fold change /veh EBF3 (11725865_a_at) / RFU CAMK2N1 (11719241_x_at) / Fold change /veh CAMK2N1 (11719241_x_at) / RFU C5orf56 (11738088_a_at) / Fold change /veh C5orf56 (11738088_a_at) / RFU OLFML3 (11715873_a_at) / Fold change /veh OLFML3 (11715873_a_at) / RFU LOC100653217 /// NTM (11731650_a_at) / Fold change /veh LOC100653217 /// NTM (11731650_a_at) / RFU MAPK11 (11762145_a_at) / Fold change /veh MAPK11 (11762145_a_at) / RFU FIZ1 (11724087_x_at) / Fold change /veh FIZ1 (11724087_x_at) / RFU OASL (11726364_x_at) / Fold change /veh OASL (11726364_x_at) / RFU SOX15 (11748057_x_at) / Fold change /veh SOX15 (11748057_x_at) / RFU CD79A (11719716_a_at) / Fold change /veh CD79A (11719716_a_at) / RFU HIST1H1D (11736915_at) / Fold change /veh HIST1H1D (11736915_at) / RFU CASKIN2 (11723855_a_at) / Fold change /veh CASKIN2 (11723855_a_at) / RFU LOC730098 (11760151_x_at) / Fold change /veh LOC730098 (11760151_x_at) / RFU OR4N2 (11742367_at) / Fold change /veh OR4N2 (11742367_at) / RFU PRRT2 (11749266_a_at) / Fold change /veh PRRT2 (11749266_a_at) / RFU SNX32 (11753110_a_at) / Fold change /veh SNX32 (11753110_a_at) / RFU CDHR5 (11726645_a_at) / Fold change /veh CDHR5 (11726645_a_at) / RFU RCAN1 (11760418_a_at) / Fold change /veh RCAN1 (11760418_a_at) / RFU FAM167A (11723789_a_at) / Fold change /veh FAM167A (11723789_a_at) / RFU FAM26E (11764081_at) / Fold change /veh FAM26E (11764081_at) / RFU ISYNA1 (11749810_s_at) / Fold change /veh ISYNA1 (11749810_s_at) / RFU ACY1 (11761880_at) / Fold change /veh ACY1 (11761880_at) / RFU 11764098_at / Fold change /veh 11764098_at / RFU SAMD14 (11745864_x_at) / Fold change /veh SAMD14 (11745864_x_at) / RFU NPB (11741838_a_at) / Fold change /veh NPB (11741838_a_at) / RFU TMPRSS6 (11731388_a_at) / Fold change /veh TMPRSS6 (11731388_a_at) / RFU KRTAP10-2 (11738614_at) / Fold change /veh KRTAP10-2 (11738614_at) / RFU ARHGAP8 /// PRR5-ARHGAP8 (11727945_x_at) / Fold change /veh ARHGAP8 /// PRR5-ARHGAP8 (11727945_x_at) / RFU KRTAP5-7 /// NADSYN1 (11734609_at) / Fold change /veh KRTAP5-7 /// NADSYN1 (11734609_at) / RFU RASL12 (11751679_a_at) / Fold change /veh RASL12 (11751679_a_at) / RFU CDKN2B (11736163_a_at) / Fold change /veh CDKN2B (11736163_a_at) / RFU PRF1 (11729649_at) / Fold change /veh PRF1 (11729649_at) / RFU, ZNF638 /// ZNF638-IT1 / Fold change vs veh, ZNF638 /// ZNF638-IT1 / RFU, PANK3 / Fold change vs veh, PANK3 / RFU, SH3YL1 / Fold change vs veh, SH3YL1 / RFU, ZEB2 / Fold change vs veh, ZEB2 / RFU, NRIP1 / Fold change vs veh, NRIP1 / RFU, PTTG1IP / Fold change vs veh, PTTG1IP / RFU, CAPN2 / Fold change vs veh, CAPN2 / RFU, MED14 / Fold change vs veh, MED14 / RFU, SNORA58 / Fold change vs veh, SNORA58 / RFU, C1orf63 / Fold change vs veh, C1orf63 / RFU, LRRFIP1 / Fold change vs veh, LRRFIP1 / RFU, NDUFAF7 / Fold change vs veh, NDUFAF7 / RFU, SLC12A2 / Fold change vs veh, SLC12A2 / RFU, IBTK / Fold change vs veh, IBTK / RFU, ESF1 / Fold change vs veh, ESF1 / Fold change vs veh, TMEM50B / RFU, TAOK1 / Fold change vs veh, TAOK1 / RFU, ACBD3 / Fold change vs veh, ACBD3 / RFU, TMA16 / Fold change vs veh, TMA16 / RFU, RWDD3 / Fold change vs veh, RWDD3 / RFU, BCAT1 / Fold change vs veh, BCAT1 / RFU, EDEM3 / Fold change vs veh, EDEM3 / RFU, TMEM33 / Fold change vs veh, TMEM33 / RFU, WDR75 / Fold change vs veh, WDR75 / RFU, AHCTF1 / Fold change vs veh, AHCTF1 / RFU, TFRC / Fold change vs veh, TFRC / RFU, ZDHHC17 / Fold change vs veh, ZDHHC17 / RFU, NOM1 / Fold change vs veh, NOM1 / RFU, ARL8B / Fold change vs veh, ARL8B / RFU, ZBTB11 / Fold change vs veh, ZBTB11 / RFU, TAMM41 / Fold change vs veh, TAMM41 / RFU, KIAA1704 /// LOC100996395 / Fold change vs veh, KIAA1704 /// LOC100996395 / RFU, ING1 / Fold change vs veh, ING1 / RFU, TRMT61B / Fold change vs veh, TRMT61B / RFU, FUBP3 / Fold change vs veh, FUBP3 / RFU, TP53 / Fold change vs veh, TP53 / RFU, TNKS2 / Fold change vs veh, TNKS2 / RFU, ZFP14 / Fold change vs veh, ZFP14 / RFU, ACTR2 / Fold change vs veh, ACTR2 / RFU, PPP3R1 / Fold change vs veh, PPP3R1 / RFU, PIK3R1 / Fold change vs veh, PIK3R1 / RFU, HNRNPA1 / Fold change vs veh, HNRNPA1 / RFU, RNF170 / Fold change vs veh, RNF170 / RFU, ZNF28 / Fold change vs veh, ZNF28 / RFU, RNGTT / Fold change vs veh, RNGTT / RFU, OGT / Fold change vs veh, OGT / RFU, BRD1 / Fold change vs veh, BRD1 / RFU, MARS / Fold change vs veh, MARS / RFU, ZNF655 / Fold change vs veh, ZNF655 / RFU, FAHD1 / Fold change vs veh, FAHD1 / RFU, BDP1 / Fold change vs veh, BDP1 / RFU, LRRCC1 / Fold change vs veh, LRRCC1 / RFU, ARID1A / Fold change vs veh, ARID1A / RFU, ZNF146 / Fold change vs veh, ZNF146 / RFU, ZNF330 / Fold change vs veh, ZNF330 / RFU, GPN3 / Fold change vs veh, GPN3 / RFU, C9orf123 / Fold change vs veh, C9orf123 / RFU, N4BP2L2 / Fold change vs veh, N4BP2L2 / RFU, ARFIP1 / Fold change vs veh, ARFIP1 / RFU, FAM179B / Fold change vs veh, FAM179B / RFU, BCL10 / Fold change vs veh, BCL10 / RFU, UHRF1BP1L / Fold change vs veh, UHRF1BP1L / RFU, BET1 / Fold change vs veh, BET1 / RFU, CNOT2 / Fold change vs veh, CNOT2 / RFU, ZNF268 / Fold change vs veh, ZNF268 / Fold change vs veh, ZNF507 / RFU, DGCR2 / Fold change vs veh, DGCR2 / RFU, WDSUB1 / Fold change vs veh, WDSUB1 / Fold change vs veh, HSP90B1 /// MIR3652 / RFU, ADSS / Fold change vs veh, ADSS / RFU, GK / Fold change vs veh, GK / RFU, ZNF148 / Fold change vs veh, ZNF148 / RFU, TAF9 / Fold change vs veh, TAF9 / RFU, SLC1A5 / Fold change vs veh, SLC1A5 / RFU, SLMO2 / Fold change vs veh, SLMO2 / RFU, ABCC4 / Fold change vs veh, ABCC4 / RFU, LOC101060439 /// RAP1B / Fold change vs veh, LOC101060439 /// RAP1B / RFU, RFX7 / Fold change vs veh, RFX7 / RFU, GTPBP10 / Fold change vs veh, GTPBP10 / RFU, CNEP1R1 / Fold change vs veh, CNEP1R1 / RFU, BIVM-ERCC5 /// ERCC5 / Fold change vs veh, BIVM-ERCC5 /// ERCC5 / RFU, ILF3 / Fold change vs veh, ILF3 / RFU 11762660_at / Fold change /veh 11762660_at / RFU VCAN (11757783_s_at) / Fold change /veh VCAN (11757783_s_at) / RFU DDX43 (11728927_at) / Fold change /veh DDX43 (11728927_at) / RFU KRT8 (11758188_x_at) / Fold change /veh KRT8 (11758188_x_at) / RFU NKD1 (11759106_at) / Fold change /veh NKD1 (11759106_at) / RFU SRD5A1 (11742802_a_at) / Fold change /veh SRD5A1 (11742802_a_at) / RFU TPSAB1 /// TPSB2 (11721975_s_at) / Fold change /veh TPSAB1 /// TPSB2 (11721975_s_at) / RFU GSTM3 (11746129_a_at) / Fold change /veh GSTM3 (11746129_a_at) / RFU IL23R (11737362_x_at) / Fold change /veh IL23R (11737362_x_at) / RFU TMEM51 (11727254_a_at) / Fold change /veh TMEM51 (11727254_a_at) / RFU PIWIL2 (11732686_x_at) / Fold change /veh PIWIL2 (11732686_x_at) / RFU ORM1 (11744905_x_at) / Fold change /veh ORM1 (11744905_x_at) / RFU CCDC152 (11743942_at) / Fold change /veh CCDC152 (11743942_at) / RFU ECM1 (11717891_a_at) / Fold change /veh ECM1 (11717891_a_at) / RFU IL23R (11748794_a_at) / Fold change /veh IL23R (11748794_a_at) / RFU TNFAIP8L3 (11732012_x_at) / Fold change /veh TNFAIP8L3 (11732012_x_at) / RFU MBOAT4 (11741988_at) / Fold change /veh MBOAT4 (11741988_at) / RFU 11764193_at / Fold change /veh 11764193_at / RFU TMEM53 (11763286_at) / Fold change /veh TMEM53 (11763286_at) / RFU MAGEB2 (11727129_at) / Fold change /veh MAGEB2 (11727129_at) / RFU TMEM200A (11744735_a_at) / Fold change /veh TMEM200A (11744735_a_at) / RFU CCDC152 (11751479_a_at) / Fold change /veh CCDC152 (11751479_a_at) / RFU FAM211A (11726209_a_at) / Fold change /veh FAM211A (11726209_a_at) / RFU RGS16 (11746705_a_at) / Fold change /veh RGS16 (11746705_a_at) / RFU VCAN (11755009_s_at) / Fold change /veh VCAN (11755009_s_at) / RFU RHOB (11743442_s_at) / Fold change /veh RHOB (11743442_s_at) / RFU RGS16 (11720943_a_at) / Fold change /veh RGS16 (11720943_a_at) / RFU RGS16 (11720944_at) / Fold change /veh RGS16 (11720944_at) / RFU, VPS4B / Fold change vs veh, VPS4B / RFU, CREB1 / Fold change vs veh, CREB1 / RFU, DNAJC13 / Fold change vs veh, DNAJC13 / RFU, GNAQ / Fold change vs veh, GNAQ / RFU, CDK5R1 / Fold change vs veh, CDK5R1 / RFU, ZRANB3 / Fold change vs veh, ZRANB3 / RFU, CUL4A / Fold change vs veh, CUL4A / RFU, CCNY / Fold change vs veh, CCNY / RFU, UFL1 / Fold change vs veh, UFL1 / RFU, COG3 / Fold change vs veh, COG3 / RFU, DIAPH2 / Fold change vs veh, DIAPH2 / RFU, SKA2 / Fold change vs veh, SKA2 / RFU, AFF3 / Fold change vs veh, AFF3 / RFU, LMF1 / Fold change vs veh, LMF1 / RFU, IPO11 / Fold change vs veh, IPO11 / RFU, DFFB / Fold change vs veh, DFFB / RFU, FOXP1 / Fold change vs veh, FOXP1 / RFU, CARD8 / Fold change vs veh, CARD8 / RFU, STRN3 / Fold change vs veh, STRN3 / RFU, ADK / Fold change vs veh, ADK / RFU, RASSF2 / Fold change vs veh, RASSF2 / RFU, WIPF1 / Fold change vs veh, WIPF1 / RFU, LARP1B / Fold change vs veh, LARP1B / RFU, RASA1 / Fold change vs veh, RASA1 / RFU, RB1 / Fold change vs veh, RB1 / RFU, PPFIA1 / Fold change vs veh, PPFIA1 / RFU, MAT2A / Fold change vs veh, MAT2A / RFU, CCT5 / Fold change vs veh, CCT5 / RFU, WDR92 / Fold change vs veh, WDR92 / RFU, CUX1 / Fold change vs veh, CUX1 / RFU, TTC7A / Fold change vs veh, TTC7A / RFU, TMEM135 / Fold change vs veh, TMEM135 / RFU, DEPTOR / Fold change vs veh, DEPTOR / RFU, CPM / Fold change vs veh, CPM / RFU, DNAJB6 / Fold change vs veh, DNAJB6 / RFU, CACNA2D3 / Fold change vs veh, CACNA2D3 / RFU, DTX4 / Fold change vs veh, DTX4 / RFU, TFCP2 / Fold change vs veh, TFCP2 / RFU, GMCL1 /// GMCL1P1 / Fold change vs veh, GMCL1 /// GMCL1P1 / RFU, AEBP2 / Fold change vs veh, AEBP2 / RFU, SNHG1 /// SNORD22 /// SNORD25 /// SNORD26 /// SNORD27 /// SNORD28 /// SNORD29 /// SNORD31 / Fold change vs veh, SNHG1 /// SNORD22 /// SNORD25 /// SNORD26 /// SNORD27 /// SNORD28 /// SNORD29 /// SNORD31 / Fold change (Aza/veh), C12orf56 (ProbeSet 11735607_a_at) / Fold change (ACY-1035/veh), C12orf56 (ProbeSet 11735607_a_at) / Fold change (Aza/veh), FGFR1OP (ProbeSet 11751329_s_at) / Fold change (ACY-1035/veh), FGFR1OP (ProbeSet 11751329_s_at) / Fold change (Aza/veh), VPS36 (ProbeSet 11739960_a_at) / Fold change (ACY-1035/veh), VPS36 (ProbeSet 11739960_a_at) / RFU SYPL1 (11715823_x_at) / Fold change /veh SYPL1 (11715823_x_at) / RFU IGFBP7 (11715501_s_at) / Fold change /veh IGFBP7 (11715501_s_at) / RFU REEP3 (11722064_at) / Fold change /veh REEP3 (11722064_at) / RFU IGLL1 (11728026_x_at) / Fold change /veh IGLL1 (11728026_x_at): dose or concentration left out as unconfirmed
Conditions: ProbeSet 11727958_a_at; LIST B

Question: `Nc1ccc(-c2cccs2)cc1NC(=O)c1ccc2c(c1)cc(C1CC1)n2CCN1CCOCC1` [ACY-1035] was tested. Which “RFU, ING1” value did it give?
Answer: Its value is 74.08 RFU.
